What all share (assay): HPLC product formation, Michaelis-Menten
Common to all, as to assay type: biochemical, Sarcandra glabra

One assay deals with T1, SgRAS.
T1 construct: full length, 449 residues, 49348 Da
Conditions: 0.1 M potassium phosphate, exact conditions in Table S15. From the text: HPLC product formation, Michaelis-Menten on SgRAS

Another assay deals with T2, SgHST.
T2 construct: full length, 436 residues, 48424 Da
Conditions: 0.1 M potassium phosphate, exact conditions in Table S12. The text has this:
HPLC product formation, Michaelis-Menten on SgHST

The test system of the next assay is T3, SgHQT2.
T3 construct: full length (5'-RACE), 441 residues, 48847 Da
Conditions: 0.1 M potassium phosphate, exact conditions in Table S14. From the text:
HPLC product formation, Michaelis-Menten on SgHQT2

The test system of the next assay is T4, SgHQT1.
T4 construct: full length, 427 residues, 47772 Da
Conditions: 0.1 M potassium phosphate, exact conditions in Table S13. From the text: HPLC product formation, Michaelis-Menten on SgHQT1

The mark [1] stands for this setting: with 4-hydroxyphenyllactic acid (pHPL).

Data on seven compounds can be found in PMC11875395, “Phenolic metabolism in Sarcandra glabra is mediated by distinct BAHD hydroxycinnamoyltransferases” (The Plant Journal, 2025).

`O=C(O)[C@H](O)Cc1ccc(O)c(O)c1`: in the assay with SgRAS (with p-coumaroyl-CoA), the Km amounted to 867 ± 105 µM.

Regarding `Nc1c(O)cccc1C(=O)O` [3‐Hydroxyanthranilic acid, 2‐amino‐3‐hydroxybenzoic], the Km in the assay with SgHST (with p-coumaroyl-CoA) was 238 ± 19.6 µM.

For the compound `O=C(O)C(O)Cc1ccc(O)cc1` (stereo not shown) [4‐hydroxyphenyllactic acid], the Km in the assay on SgRAS (with p-coumaroyl-CoA) stood at 544 ± 47.4 µM.

In the case of `CC(C)(COP(=O)(O)OP(=O)(O)OC[C@H]1O[C@@H](n2cnc3c(N)ncnc32)[C@H](O)[C@@H]1OP(=O)(O)O)[C@@H](O)C(=O)NCCC(=O)NCCSC(=O)/C=C/c1ccc(O)c(O)c1` [Caffeoyl‐CoA], the Km in the assay on SgHQT2 (with quinic acid) came out at 213 ± 53.5 µM; in the assay with SgHQT1 (with quinic acid), 9.3 ± 2.5 µM; in the assay on SgRAS (setting [1]), 57.2 ± 15.7 µM; in the assay with SgHST (with shikimic acid), 21.4 ± 6.8 µM.

As for `O=C(O)[C@]1(O)C[C@@H](O)[C@@H](O)[C@H](O)C1` [Quinic acid], the Km turned out to be 11100 ± 1560 µM in the assay with SgHQT2 (with p-coumaroyl-CoA) and 5520 ± 713 µM with SgHQT1 (with p-coumaroyl-CoA). The “K m (μM)” value in the assay with SgHST (with p-coumaroyl-CoA) is recorded as 16 740.0 ± 1833.0 μM.

Regarding `O=C(O)C1=C[C@@H](O)[C@@H](O)[C@H](O)C1` [Shikimic acid], the “K m (μM)” value in the assay on SgHQT1 (with p-coumaroyl-CoA, n = 3 ± SD) was 85 440.0 ± 18 700.0 μM. The Michaelis-Menten constant (Km) in the assay on SgHST (with p-coumaroyl-CoA) stood at 1220 ± 153 µM.

Turning to `CC(C)(COP(=O)(O)OP(=O)(O)OC[C@H]1O[C@@H](n2cnc3c(N)ncnc32)[C@H](O)[C@@H]1OP(=O)(O)O)[C@@H](O)C(=O)NCCC(=O)NCCSC(=O)/C=C/c1ccc(O)cc1` [p‐Coumaroyl‐CoA], the Km with SgHQT2 (with quinic acid) was determined as 82.3 ± 14.8 µM; in the assay on SgHQT1 (with quinic acid), 19.9 ± 3.4 µM; in the assay with SgRAS (setting [1]), 14.6 ± 1.7 µM; in the assay with SgHST (with shikimic acid) it was 17.4 ± 4.9 µM.

One may read the Km as the concentration of substrate that gives half-maximal velocity.
